The source of these data is patent US9981916B2 (Genentech, Inc., priority 2013, dated 2018).

Structures are written as SMILES. pIC50: −log10 of the molar value.

For this assay, the target named is T1, RORc ligand binding domain (Homo sapiens, UniProt P51449).
T1 construct: host or cells: E. coli
T1 sequence (P51449 269-508 limits assumed): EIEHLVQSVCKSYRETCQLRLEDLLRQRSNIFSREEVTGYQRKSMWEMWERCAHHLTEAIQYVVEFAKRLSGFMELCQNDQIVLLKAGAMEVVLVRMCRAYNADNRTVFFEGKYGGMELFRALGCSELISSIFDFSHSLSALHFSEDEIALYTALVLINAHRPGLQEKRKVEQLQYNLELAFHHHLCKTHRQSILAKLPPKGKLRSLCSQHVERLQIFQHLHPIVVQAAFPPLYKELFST
Put plainly: In vitro RORc ligand binding assay (25-[3H]hydroxycholesterol displacement, filter binding). The conditions noted are these: 6 nM 25-[3H]hydroxycholesterol, 0.6 ug/mL RORc receptor, 3 h at 25° C. Put shortly:
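Compounds in 5% DMSO, either dose-response or screened at 1 and 10 uM, competed with 6 nM 25-[3H]hydroxycholesterol for 0.6 ug/mL RORc over 3 h at 25° C (HEPES pH 7.4, NaCl, MgCl2, DTT, BSA buffer). Bound tracer was filter-harvested and counted; nonspecific binding came from 1 uM 25-hydroxycholesterol.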
On to `Cc1nnc(N(CCN(C)C)C[C@@]23CC[C@@H](c4cc(-c5c(F)cccc5F)nnc42)C3(C)C)o1` [Example 260, N1-(((5R,8S)-3-(2,6-difluorophenyl)-9,9-dimethyl-5,6,7,8-tetrahydro-5,8-methanocinnolin-8-yl)methyl)-N2,N2-dimethyl-N1-(5-methyl-1,3,4-oxadiazol-2-yl)ethane-1,2-diamine], for which the pIC50 (usually the negative decadic logarithm of the IC50, by convention in mol/L) is 5.47.

Compound `CC1(C)[C@@H]2CC[C@@]1(C(=O)N1C3CCC1CC(O)C3)c1nnc(-c3c(F)cccc3F)cc12` (stereo partly drawn) [Example 261, ((5S,8S)-3-(2,6-difluorophenyl)-9,9-dimethyl-5,6,7,8-tetrahydro-5,8-methanocinnolin-8-yl)(3-hydroxy-8-azabicyclo[3.2.1]octan-8-yl)methanone] gave a pIC50 of 5.94. Compared with the last compound, the pIC50 is 0.47 log units higher.

The compound `CC1(C)[C@@H]2CC[C@@]1(C(=O)N1CCC(CCO)C1)c1nnc(-c3c(F)cccc3F)cc12` (stereo partly drawn) [Example 262, ((5S,8S)-3-(2,6-difluorophenyl)-9,9-dimethyl-5,6,7,8-tetrahydro-5,8-methanocinnolin-8-yl)(3-(2-hydroxyethyl)pyrrolidin-1-yl)methanone] showed a pIC50 of 6.50.

On to `Cn1nc([C@]23CC[C@H](c4cc(-c5c(F)cccc5F)nnc42)C3(C)C)oc1=O` [Example 263, 5-((5S,8S)-3-(2,6-difluorophenyl)-9,9-dimethyl-5,6,7,8-tetrahydro-5,8-methanocinnolin-8-yl)-3-methyl-1,3,4-oxadiazol-2(3H)-one], for which the pIC50 was 6.33. The pIC50 values of the last two compounds are within 0.2 log units of each other.

Consider `CC1(C)[C@@H]2CC[C@@]1(C(=O)N1CC(CC#N)C1)c1nnc(-c3c(F)cccc3F)cc12` [Example 264, 2-(1-((5S,8S)-3-(2,6-difluorophenyl)-9,9-dimethyl-5,6,7,8-tetrahydro-5,8-methanocinnoline-8-carbonyl)azetidin-3-yl)acetonitrile], for which the pIC50 was 6.51. This pIC50 and that of the compound before are within 0.2 log units of each other.

In turn, `CN(C(=O)[C@]12CC[C@H](c3cc(-c4c(F)cccc4F)nnc31)C2(C)C)c1ccccn1` [Example 265, (5S,8S)-3-(2,6-difluorophenyl)-N,9,9-trimethyl-N-(pyridin-2-yl)-5,6,7,8-tetrahydro-5,8-methanocinnoline-8-carboxamide] showed a pIC50 of 5.98.

The compound `Cc1nnc(N(Cc2ccccc2)C[C@@]23CC[C@@H](c4cc(-c5c(F)cccc5F)nnc42)C3(C)C)o1` [Example 266, N-benzyl-N-(((5R,8S)-3-(2,6-difluorophenyl)-9,9-dimethyl-5,6,7,8-tetrahydro-5,8-methanocinnolin-8-yl)methyl)-5-methyl-1,3,4-oxadiazol-2-amine] gave a pIC50 of 6.67.

Compound `COCCn1nccc1[C@@]12CC[C@@H](c3cc(-c4c(F)cccc4F)nnc31)C2(C)C` [Example 267, (5R,8S)-3-(2,6-difluorophenyl)-8-(1-(2-methoxyethyl)-1H-pyrazol-5-yl)-9,9-dimethyl-5,6,7,8-tetrahydro-5,8-methanocinnoline] gave a pIC50 of 6.47.

As for `CC1(C)[C@H]2CC[C@]1(CN1CCNC1=O)c1nnc(-c3c(F)cccc3F)cc12` [Example 268, 1-(((5R,8S)-3-(2,6-difluorophenyl)-9,9-dimethyl-5,6,7,8-tetrahydro-5,8-methanocinnolin-8-yl)methyl)imidazolidin-2-one], the pIC50 was 6.49. The pIC50 values of the last two compounds are within 0.2 log units of each other.

On to `CC1(C)[C@H]2CC[C@]1(c1ccnn1CCO)c1nnc(-c3c(F)cccc3F)cc12` [Example 269, 2-(5-((5R,8S)-3-(2,6-difluorophenyl)-9,9-dimethyl-5,6,7,8-tetrahydro-5,8-methanocinnolin-8-yl)-1H-pyrazol-1-yl)ethanol], for which the pIC50 was 6.37.

With `Cc1nnc(OC(=O)[C@]23CC[C@H](c4cc(-c5c(F)cccc5F)nnc42)C3(C)C)o1` [Example 270, (5S,8S)-5-methyl-1,3,4-oxadiazol-2-yl 3-(2,6-difluorophenyl)-9,9-dimethyl-5,6,7,8-tetrahydro-5,8-methanocinnoline-8-carboxylate], the pIC50 was 5.86.

In the case of `CCN(C(=O)CO)C(C)(C)[C@@]12CC[C@@H](c3cc(-c4c(F)cccc4F)nnc31)C2(C)C` [Example 271, N-(2-((5R,8S)-3-(2,6-difluorophenyl)-9,9-dimethyl-5,6,7,8-tetrahydro-5,8-methanocinnolin-8-yl)propan-2-yl)-N-ethyl-2-hydroxyacetamide], the pIC50 is 6.72.

Turning to `CC1(C)[C@H]2CC[C@]1(CN(CCO)c1ncccn1)c1nnc(-c3c(F)cccc3F)cc12` [Example 272, 2-((((5R,8S)-3-(2,6-difluorophenyl)-9,9-dimethyl-5,6,7,8-tetrahydro-5,8-methanocinnolin-8-yl)methyl)(pyrimidin-2-yl)amino)ethanol], the pIC50 was 6.91.

`CC1(C)[C@H]2CC[C@]1(CN1CCCC1=O)c1nnc(-c3c(F)cccc3F)cc12` [Example 273, 1-(((5R,8S)-3-(2,6-difluorophenyl)-9,9-dimethyl-5,6,7,8-tetrahydro-5,8-methanocinnolin-8-yl)methyl)pyrrolidin-2-one] showed a pIC50 of 6.34.

`COC(=O)N(C)[C@@]12CC[C@@H](c3cc(-c4c(F)cccc4F)nnc31)C2(C)C` [Example 274, methyl ((5R,8R)-3-(2,6-difluorophenyl)-9,9-dimethyl-5,6,7,8-tetrahydro-5,8-methanocinnolin-8-yl)(methyl)carbamate] had a pIC50 of 6.52.

Turning to `Cn1nccc1[C@@]12CC[C@@H](c3cc(-c4c(F)cccc4F)nnc31)C2(C)C` [Example 275, (5R,8S)-3-(2,6-difluorophenyl)-9,9-dimethyl-8-(1-methyl-1H-pyrazol-5-yl)-5,6,7,8-tetrahydro-5,8-methanocinnoline], the pIC50 was 6.84.

`CC1(C)[C@H]2CC[C@]1(c1ccnn1CCC#N)c1nnc(-c3c(F)cccc3F)cc12` [Example 276, 3-(5-((5R,8S)-3-(2,6-difluorophenyl)-9,9-dimethyl-5,6,7,8-tetrahydro-5,8-methanocinnolin-8-yl)-1H-pyrazol-1-yl)propanenitrile] showed a pIC50 of 6.33.

Compound `CCOC(=O)N(CC)C[C@@]12CC[C@@H](c3cc(-c4c(F)cccc4F)nnc31)C2(C)C` [Example 277, ethyl (((5R,8S)-3-(2,6-difluorophenyl)-9,9-dimethyl-5,6,7,8-tetrahydro-5,8-methanocinnolin-8-yl)methyl)(ethyl) carbamate] showed a pIC50 of 8.30.

As to `CCN(C[C@@]12CC[C@@H](c3cc(-c4c(F)cccc4F)nnc31)C2(C)C)C(=O)N(C)C` [Example 278, 1-(((5R,8S)-3-(2,6-difluorophenyl)-9,9-dimethyl-5,6,7,8-tetrahydro-5,8-methanocinnolin-8-yl)methyl)-1-ethyl-3,3-dimethylurea], the pIC50 was 7.44.

`CC1(C)[C@H]2CC[C@]1(CN1CCOC1=O)c1nnc(-c3c(F)cccc3F)cc12` [Example 279, 3-(((5R,8S)-3-(2,6-difluorophenyl)-9,9-dimethyl-5,6,7,8-tetrahydro-5,8-methanocinnolin-8-yl)methyl)oxazolidin-2-one] showed a pIC50 of 6.65.

Turning to `CN(C(=O)OC(C)(C)C)[C@]12CC[C@H](c3cc(-c4c(F)cccc4F)nnc31)C2(C)C` [Example 280, tert-butyl ((5S,8S)-3-(2,6-difluorophenyl)-9,9-dimethyl-5,6,7,8-tetrahydro-5,8-methanocinnolin-8-yl)(methyl)carbamate], the pIC50 was 5.65.

As for `CN(C(=O)OC(C)(C)C)[C@@]12CC[C@@H](c3cc(-c4c(F)cccc4F)nnc31)C2(C)C` [Example 281, tert-butyl ((5R,8R)-3-(2,6-difluorophenyl)-9,9-dimethyl-5,6,7,8-tetrahydro-5,8-methanocinnolin-8-yl)(methyl)carbamate], the pIC50 is 6.66. This pIC50 lies 1.01 log units higher than the previous one.

Consider `CC1(C)[C@H]2CC[C@]1(NS(C)(=O)=O)c1nnc(-c3c(F)cccc3F)cc12` [Example 282, N-((5R,8R)-3-(2,6-difluorophenyl)-9,9-dimethyl-5,6,7,8-tetrahydro-5,8-methanocinnolin-8-yl)methanesulfonamide], for which the pIC50 was 6.01.

Compound `CC1(C)[C@H]2CC[C@]1(CN(CCO)C(N)=O)c1nnc(-c3c(F)cccc3F)cc12` [Example 283, 1-(((5R,8S)-3-(2,6-difluorophenyl)-9,9-dimethyl-5,6,7,8-tetrahydro-5,8-methanocinnolin-8-yl)methyl)-1-(2-hydroxyethyl)urea] showed a pIC50 of 6.65.

Take `CC1(C)[C@H]2CC[C@]1(CN1CCCS1(=O)=O)c1nnc(-c3c(F)cccc3F)cc12` [Example 284, 2-(((5R,8S)-3-(2,6-difluorophenyl)-9,9-dimethyl-5,6,7,8-tetrahydro-5,8-methanocinnolin-8-yl)methyl)isothiazolidine 1,1-dioxide]: the pIC50 was 6.07.

Consider `CCNC(=O)N(C)[C@@]12CC[C@@H](c3cc(-c4c(F)cccc4F)nnc31)C2(C)C` [Example 285, 1-((5R,8R)-3-(2,6-difluorophenyl)-9,9-dimethyl-5,6,7,8-tetrahydro-5,8-methanocinnolin-8-yl)-3-ethyl-1-methylurea], for which the pIC50 was 5.68.

With `CN([C@@]12CC[C@@H](c3cc(-c4c(F)cccc4F)nnc31)C2(C)C)S(C)(=O)=O` [Example 286, N-((5R,8R)-3-(2,6-difluorophenyl)-9,9-dimethyl-5,6,7,8-tetrahydro-5,8-methanocinnolin-8-yl)-N-methylmethanesulfonamide], the pIC50 is 6.66.

`CC1(C)[C@H]2CC[C@]1(c1ccn(CCC#N)n1)c1nnc(-c3c(F)cccc3F)cc12` [Example 287]: the pIC50 was 6.21.
